Where “and” joins values, the source holds several entries; their conditions need not be identical. Equal entries are not always repeated. Entries after “also recorded” stand apart in the source; their conditions may differ. Where two headings read alike, the source gives them in different places.
Columns and labels:
healthy volunteers = assay: Safety and tolerability in healthy volunteers, part A; assay type: in vivo, human
Method: (§1) The healthy volunteers in part A were administered 2 mg/cm^2 topical bimiralisib 2% on 400 cm^2 and 2 mg/cm^2 vehicle gel (serving as placebo with identical appearance) on 100 cm^2 skin of the back once daily by the study physician for 21 consecutive days, all administered at the study site. The 19 patients in part B were randomized 1:1, with 9 assigned to active and 10 to placebo. Randomization was predefined and performed in SAS version 9.4 (SAS Institute, Cary, NC, USA) by an independent statistician, using the SAS code for the parallel, two-treatment randomization with block size 2. The investigators, study personnel, sponsor and patients were blinded for allocated treatment throughout the study. Patients randomized in the treatment group applied topical bimiralisib 2%, once daily for 42 consecutive days, whereas the control group applied the vehicle gel. During the treatment period, the patients applied the bimiralisib or vehicle themselves at home after training and instructions on day 1. After 42 days, patients with ≥15% lesion improvement by CAILS could enter a blinded extension period in which treatment was continued until day 84.
(§2) The secondary endpoint was to characterize local tolerability, safety and systemic exposure of bimiralisib by application site assessment using the Local Irritation Grading Scale (LIGS), adverse events (AEs), safety measurements and systemic pharmacokinetics.
(§3) The LIGS, a composite score of erythema, edema and desquamation, was used to assess the application site for safety or tolerability issues. In addition, safety and tolerability were evaluated by monitoring of AEs, physical examinations, vital signs, 12-lead ECGs and laboratory tests.

[1] = Cutaneous pharmacokinetics in skin punch biopsies of MF patients (MALDI-MSI); assay type: in vivo, human; settings: for concentration at 6 h: human, skin punch biopsy, topical, 2 % gel, MF patients
Method: (§4) To investigate cutaneous pharmacokinetics in both HVs and patients, 3 mm skin punch biopsies of the treatment area were taken 6 h after the last topical application (day 21 in part A and day 42/84 in part B, respectively) and snap-frozen within 5 min after collection. Skin punch biopsies were shipped to ImaBiotech (MS Imaging Department, Lille, France) and analyzed using matrix-assisted laser desorption/ionization mass spectrometry imaging (MALDI-MSI) to spatially visualize pharmacokinetics of bimiralisib throughout the biopsy (Figure 1).
(§5) Figure 1 Method of obtaining cutaneous pharmacokinetics of bimiralisib in HVs and early-stage MF patients. (A) Bimiralisib gel 2% is applied topically, in part A at the back of six HVs and in part B at 1–3 target MF lesions. (B) A full-thickness skin punch biopsy was taken on day 21 and day 42/84, respectively, for HVs and MF patients. Skin punch biopsy was snap-frozen within 5 min, processed and cryosectioned. A single section was used for H&E staining. (C) MALDI matrix spraying. (D) Prepared samples were ionized by a laser beam. (E) Seven tesla Matrix-assisted laser desorption/ionization Fourier transform ion cyclotron resonance mass spectrometry imaging (7T-MALDI-FTICR MSI) acquisition. (F) Acquired data are analyzed and MALDI images are acquired.
(§6) Pharmacokinetics in tissue were analyzed with a validated 7T-MALDI-FTICR method with a lower limit of quantification of 62 ng/g of tissue and an assay sensitivity of […] (lower limit of detection). Pharmacokinetic data below the lower limit of quantification but above the limit of detection were interpolated and used in the analysis.

[2] = Systemic pharmacokinetics in plasma of early-stage MF patients (UPLC-MS/MS), part B; assay type: in vivo, human
Method: as §1
(§7) At baseline of part B, one to three MF lesions (target lesions) were chosen to define a 150–200 cm^2 treatment area. Other MF lesions were left untreated in this study. Emollients, i.e., unguentum leniens, were distributed to patients and allowed for daily use on the skin, barring the target lesion(s). In part B, patient visits to the study site were scheduled for days −42 (run-in period), 1, 14, 28, 42 (end of treatment for all patients with <15% lesion improvement), 56 and 70 (end of study). Patients continuing with the extended treatment period had three extra visits on days 84 (end of treatment), 98 and 112 (end of study). Study details are provided in the assessment schedule (Table 1, Part B).
(§8) Blood samples for determination of bimiralisib levels in plasma of HVs were collected predose and at 1, 3, 6 and 24 h on days 7, 14 and 21 of application in part A. In part B, PK blood samples from patients were collected predose and at 1, 2, 3 and 6 h after dosing on day 42 (or on day 84 in case of participation in the extension study) of topical application.
(§9) Pharmacokinetics in plasma were analyzed with a validated ultra-performance liquid chromatography–tandem mass spectrometer method (UPLC-MS/MS) with a lower limit of quantification of 1.00 ng/mL of plasma.
(§10) Pharmacokinetic data were visualized for each subject and part separately. Due to differences in surface areas and applied doses between part A and part B, pharmacokinetic data were normalized to allow for the exploration of differences in exposure between HVs and patients after log transformation. For exploratory purposes, the applied dose was stratified by part and by number of lesions. The average concentration (Cavg) per subject was calculated based on all pharmacokinetic data of an individual combined.

[3] = tested on: early-stage MF target lesions; assay: Clinical efficacy and pharmacodynamics in early-stage MF patients (CAILS, LSCI, OCT, multispectral imaging); assay type: in vivo, human
Method: as §1, §7
The primary endpoint was to evaluate the efficacy of bimiralisib versus placebo after 6 weeks of treatment by the change from baseline on Composite Assessment of Index Lesion Severity (CAILS). Clinical efficacy was assessed by the CAILS per target lesion, which is a score derived from individual scores for erythema, desquamation, plaque elevation, hypo- or hyperpigmentation and lesion size. Change from baseline of the combined CAILS score for all target lesions was used to calculate the objective response rate (ORR), i.e., the number of patients with complete response (CR: 100% clearance of target lesions from baseline) and partial response (PR: 50%–99% clearance) divided by the total number of patients in the respective treatment arm. […] Target lesions were extensively characterized by the assessment of skin perfusion with laser speckle contrast imaging (LSCI, PeriCam PSI NR system, Perimed, Sweden); skin morphology (blood flow) by optical coherence tomography (OCT, VivoSight, Michelson Diagnostics, UK); and erythema, roughness and edema by a multispectral camera (Antera 3D, Miravez, Ireland). The Scarlet Red app (ScarletRed Vision, Vienna, Austria) was used by patients at home for daily photo documentation and erythema quantification of a single target lesion.
All safety and statistical calculations were conducted with SAS version 9.4 for Windows (SAS Institute, Cary, NC, USA). PK parameter calculations were conducted with R version 4.0.3 for Windows (R Foundation for Statistical Computing, Vienna, Austria). All efficacy endpoints were analyzed for both the per protocol set and full analysis set, using a mixed model analysis of covariance (ANCOVA) with treatment, time and interaction of treatment by time as fixed factors; baseline as covariate; and subject as random factor.

[4] = Systemic pharmacokinetics in plasma of healthy volunteers (UPLC-MS/MS), part A; assay type: in vivo, human; settings: for AUC(0-t): topical, 2 mg/cm^2, HVs
Method: as §1, §8, §9, §10

MF patients = assay: Safety and tolerability in MF patients, part B; assay type: in vivo, human
Method: as §1, §2, §3

[5] = Cutaneous pharmacokinetics in skin punch biopsies of healthy volunteers (MALDI-MSI); assay type: in vivo, human; settings: for Kp at 6 h / concentration at 6 h: human, topical; for Kp at 6 h: skin / plasma, 2 mg/cm^2, HVs; for concentration at 6 h: 2 mg/cm^2, HVs, day 21, 6 h after last application
Method: as §4, §5, §6

[6] = parameters: method as in earlier work; settings: plasma; cited from earlier work
CTCL patients = tested on: CTCL patients; parameters: method as in PMID 29233821; settings: oral, 19 CTCL patients; cited from earlier work
CTCL cell lines = settings: cited from earlier work

## Nc1cc(C(F)(F)F)c(-c2nc(N3CCOCC3)nc(N3CCOCC3)n2)cn1 [bimiralisib, 5-(4,6-Dimorpholino-1,3,5-triazin-2-yl)-4-(trifluoromethyl)pyridin-2-amine]
Healthy volunteers; bimiralisib area, n = 3
  acne at the application site, subjects: 50%
Healthy volunteers; full course
  LIGS scores, bimiralisib vs placebo areas: comparable
Healthy volunteers; n = 6, each subject received both bimiralisib and placebo areas
  subjects with one or more adverse events: 100%
Healthy volunteers; reported for both placebo- and bimiralisib-treated areas
  dryness at the application site, subjects: 83.3%
[1]; Figure 5, single HV and single MF patient, MALDI-MSI
  exposure in papillary dermis, lower than in epidermis: approximately 10 fold
[1]; day 42/84, 6 h after last application, read-out: mean cutaneous concentration in skin punch biopsies
  concentration at 6 h: 5300 ng/g
[1]; day 42/84, read-out: cutaneous concentration in skin punch biopsies, range
  concentration at 6 h: 300 to 30200 ng/g
[2]; MF patients
  highest plasma concentration reached: 18.70 ng/mL
[2]; MF patients, gel 2% once daily, day 42 or 84
  mean Cavg in plasma: 4.49 ng/mL
[2]; MF patients, NOAEL 96.6 ng/mL
  plasma concentrations relative to NOAEL: substantially below
[2]; normalized around 200 cm^2/(2 mg/cm^2)
  mean ratio of normalized plasma concentration, MF patients vs HVs: 2.44 fold
[2]; normalized for applied dose and area
  increase in normalized plasma concentration, MF patients compared to HVs: 144%
[3]; 42 days once-daily treatment, p = 0.74 over time, p = 0.98 on day 42
  efficacy by CAILS vs placebo, in words: No statistical significant difference; also recorded: no statistically significant clinical response
[3]; Table S7
  objective response rates between treatment groups: No substantial differences
[3]; bimiralisib group (n = 9), day 42
  subjects with ≥15% lesional response by CAILS: Three
[3]; bimiralisib group, by CAILS
  clinical response classification: stable disease
[3]; day 42, once daily, 95% CI −3.3–3.4, p = 0.9820
  difference in change from baseline in CAILS, bimiralisib vs placebo: 0.0
[3]; target lesions
  skin perfusion (LSCI), blood flow (OCT), erythema and roughness by 3D multispectral imaging: no improvement
[4]; HVs, 2 mg/cm^2 gel 2% on 400 cm^2 once daily for 21 days
  mean Cavg in plasma: 0.96 ng/mL and 0.956 ng/mL
[4]; HVs, topical gel once daily
  time at which steady state is reached: < 7 days
[4]; HVs, NOAEL 96.6 ng/mL
  plasma concentrations relative to human NOAEL: detectable but low and substantially below
[4]; human, plasma, 2 mg/cm^2, HVs, topical once daily, read-out: highest Cmax in plasma
  Cmax: 2.74 ng/mL
[4]; human, plasma, after 14 days of once-daily gel, read-out: highest AUC(0-24h)
  AUC(0-t): 40 ng·h/mL
[4]; human, plasma, day 7, read-out: mean AUC(0-24 h)
  AUC(0-t): 21.3 ng·h/mL
[4]; human, plasma, day 14, read-out: mean AUC(0-24 h)
  AUC(0-t): 22.2 ng·h/mL
MF patients; both parts
  vital signs, laboratory analyses, ECG, urinalysis: did not result in any clinically significant changes
MF patients; local reactions and systemic adverse events, HVs and MF patients
  overall tolerability: safe and well tolerated
MF patients; part B, bimiralisib group, 2/9
  myalgia, patients: 22.2%
MF patients; part B, bimiralisib group, day 14
  mild dryness at the application site, patients: 1/9
MF patients; part B, bimiralisib group, day 28
  well-defined erythema at the application site, patients: one
MF patients; part B, bimiralisib group, six of nine patients
  patients with at least one AE: 66.7%
[5]; read-out: mean ratio skin/plasma concentration
  Kp at 6 h: 3050
[5]; read-out: ratio skin/plasma concentration, range
  Kp at 6 h: 1210 to 7360
[5]; skin punch biopsy (epidermis), epidermis, read-out: mean concentration in skin punch biopsies
  concentration at 6 h: 2540 ng/g
[5]; skin punch biopsy, read-out: concentration in skin punch biopsies, range
  concentration at 6 h: 1030 to 5700 ng/g
[5]; part A skin punch biopsies
  exposure in papillary and reticular dermis, lower than in epidermis: approximately 10 fold
[5]; part A skin punch biopsies, IC90 from ref 31, 32
  local exposure in epidermis relative to IC90 of pAKT and pS6: within range of the IC90 of pAKT and pS6
[6]
  human no observed adverse effect level (NOAEL Cmax): 96.6 ng/mL

## C[C@H](Nc1ncnc2nc[nH]c12)c1cc2cccc(Cl)c2c(=O)n1-c1ccccc1 [duvelisib]
CTCL patients
  complete responders by mSWAT: 3
  partial responders by mSWAT: 6

## CO[C@H]1C[C@@H]2CC[C@@H](C)[C@@](O)(O2)C(=O)C(=O)N2CCCC[C@H]2C(=O)O[C@H]([C@H](C)C[C@@H]2CC[C@@H](OCCO)[C@H](OC)C2)CC(=O)[C@H](C)/C=C(\C)[C@@H](O)[C@@H](OC)C(=O)[C@H](C)C[C@H](C)/C=C/C=C/C=C/1C [everolimus]
CTCL cell lines
  antitumor activity in vitro: has antitumor activity in vitro

From paper PMC8946662, “Topical Bimiralisib Shows Meaningful Cutaneous Drug Levels in Healthy Volunteers and Mycosis Fungoides Patients but No Clinical Activity in a First-in-Human, Randomized Controlled Trial” (Cancers, 2022)
